These are literature values, as cited in patent publication US20210046025A1, “Injection for Protecting Ischemic Myocardium and Preparation Method thereof” (priority 2018, published 2021).

Data set [1] deals with ischemia/reperfusion myocardial infarction. The conditions noted are these: large animal models, clinically relevant reperfusion (Min Xie et al., Circulation 2014).
For data set [2] the following is noted: first-pass metabolism elimination.

For `O=C(CCCCCCC(=O)Nc1ccccc1)NO` [N-suberoylanilide hydroxamic acid], the “Solubility in oil and water” value was “insoluble in both oil and water”; the Water solubility result was “poor”. Besides, in data set [1], the “Effect on myocardial infarction area” value is “reduce myocardial infarction area”. In addition, the Oral bioavailability result in data set [2] was “very low”.
